The source of these data is patent publication US20240343704A1, “HALO-SUBSTITUTED AMINO PYRIDINE COMPOUNDS AS INHIBITORS OF THE HAEMATOPOIETIC PROGENITOR KINASE 1 (HPK1)” (priority 2021, published 2024).

Read-outs that look alike come from different tables or passages of the source.

The target in experiment [1] is T1, Recombinant (1-346) HPK1 (h) (Homo sapiens, UniProt Q92918).
T1 construct: Recombinant (1-346) HPK1 (h) is incubated with 8 mM MOPS pH 7.0
T1 sequence (Q92918 1-346): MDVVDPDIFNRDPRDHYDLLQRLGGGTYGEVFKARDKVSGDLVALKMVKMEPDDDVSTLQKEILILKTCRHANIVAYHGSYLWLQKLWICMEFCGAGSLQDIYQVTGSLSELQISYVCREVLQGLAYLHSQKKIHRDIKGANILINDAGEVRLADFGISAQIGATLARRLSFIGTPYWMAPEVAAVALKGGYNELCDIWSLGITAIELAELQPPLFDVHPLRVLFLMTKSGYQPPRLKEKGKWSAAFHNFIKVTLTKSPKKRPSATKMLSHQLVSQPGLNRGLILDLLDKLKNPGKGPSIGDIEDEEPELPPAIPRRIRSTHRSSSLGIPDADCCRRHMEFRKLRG
Description: HPK1 Human STE Kinase Enzymatic Radiometric Assay. The class given is biochemical. How it is done: A stock solution of 10 mM of test compound is prepared in DMSO. The compound plate was prepared by 3-fold and 9-point serial dilutions. […] The reaction is initiated by The addition of the Mg/ATP mix. After incubation for 40 minutes at RT, the reaction is stopped by the addition of phosphoric acid to a concentration of 0.5%.

The target of a further experiment is Lck (h) (Homo sapiens, UniProt P06239). Description: Lck Human  Kinase Enzymatic Radiometric Assay. It is filed as biochemical. The essentials: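 Substrate 33P-incorporation measured by scintillation counting after spotting on P30 filtermat and phosphoric acid washes. Human Lck reacted 40 min at RT in 50 mM Tris pH 7.5 with 10 mM MgAcetate, [gamma-33P]-ATP, 250 uM Cdc2 peptide, 0.1 mM EGTA and 0.1 mM Na3VO4.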
Sequence of Lck (h) (P06239 whole entry): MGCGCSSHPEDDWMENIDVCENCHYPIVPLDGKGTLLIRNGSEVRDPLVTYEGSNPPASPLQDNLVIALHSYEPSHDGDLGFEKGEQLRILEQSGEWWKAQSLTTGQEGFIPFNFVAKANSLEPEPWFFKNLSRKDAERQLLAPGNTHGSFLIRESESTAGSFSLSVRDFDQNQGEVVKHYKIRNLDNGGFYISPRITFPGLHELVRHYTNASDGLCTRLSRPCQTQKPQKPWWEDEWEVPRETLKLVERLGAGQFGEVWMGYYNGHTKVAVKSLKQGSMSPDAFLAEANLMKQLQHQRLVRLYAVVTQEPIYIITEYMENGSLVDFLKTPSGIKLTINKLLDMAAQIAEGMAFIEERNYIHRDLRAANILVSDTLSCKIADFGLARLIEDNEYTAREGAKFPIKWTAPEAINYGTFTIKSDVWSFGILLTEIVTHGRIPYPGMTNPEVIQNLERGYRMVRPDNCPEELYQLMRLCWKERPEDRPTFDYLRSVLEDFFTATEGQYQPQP

In general, IC50 refers to the concentration at which inhibition is half-maximal. On to `Nc1nc(F)c(-c2cccc(OCC3CC3)c2)cc1-c1cc2c(cc1F)C(=O)NCC2` [I-315, 6-(2-amino-5-(3-(cyclopropylmethoxy)phenyl)-6-fluoropyridin-3-yl)-7-fluoro-3,4-dihydroisoquinolin-1(2H)-one], for which the IC50 in experiment [1] (read-out: HPK1 IC50 nM Range*) was 101 to 1000 nM; on Lck (h) (read-out: Lck IC50 nM Range*), above 1000 nM.
Consider `Nc1nc(F)c(-c2ccc(OC3CCN(C(=O)CC4CC4)CC3)cc2)cc1-c1ccc2c(c1)CCNC2=O` [I-337, 6-(2-amino-5-(4-((1-(2-cyclopropylacetyl)piperidin-4-yl)oxy)phenyl)-6-fluoropyridin-3-yl)-3,4-dihydroisoquinolin-1(2H)-one], for which the results for the IC50 (in experiment [1] (read-out: HPK1 IC50 nM Range*); at Lck (h) (read-out: Lck IC50 nM Range*)) were 11 to 100 nM and above 1000 nM, respectively.
The corresponding values for `CC(C)N1CCN(c2ccc(-c3cc(-c4cc(F)c5c(=O)[nH]ccc5c4)c(N)nc3F)cc2)CC1` [I-372, 6-(2-amino-6-fluoro-5-(4-(4-isopropylpiperazin-1-yl)phenyl)pyridin-3-yl)-8-fluoroisoquinolin-1(2H)-one] are 0.1 to 10 nM and 101 to 1000 nM.
The corresponding values for `Nc1nc(F)c(-c2ccc(C3=CCN(CCO)C3)cc2)cc1-c1ccc2c(c1)CCNC2=O` [I-123, 6-(2-amino-6-fluoro-5-(4-(1-(2-hydroxyethyl)-2,5-dihydro-1H-pyrrol-3-yl)phenyl)pyridin-3-yl)-3,4-dihydroisoquinolin-1(2H)-one] are 0.1 to 10 nM and above 1000 nM.
The corresponding values for `CC(C)N1CC=C(c2ccc(-c3cc(-c4cc5c(cc4F)C(=O)NCC5)c(N)nc3F)cc2)CC1` [I-295, 6-(2-amino-6-fluoro-5-(4-(1-isopropyl-1,2,3,6-tetrahydropyridin-4-yl)phenyl)pyridin-3-yl)-7-fluoro-3,4-dihydroisoquinolin-1(2H)-one] are 0.1 to 10 nM and above 1000 nM.
As for `CC(C)N1CCN(c2ccc(-c3cc(-c4ccc5c(c4)OCCNC5=O)c(N)nc3F)cc2)CC1` [I-358, 8-(2-amino-6-fluoro-5-(4-(4-isopropylpiperazin-1-yl)phenyl)pyridin-3-yl)-3,4-dihydrobenzo[f][1,4]oxazepin-5(2H)-one], the figures for the IC50 (in experiment [1] (read-out: HPK1 IC50 nM Range*); on Lck (h) (read-out: Lck IC50 nM Range*)) were 0.1 to 10 nM and above 1000 nM, respectively.
The corresponding values for `C[C@@H]1COCCN1c1ccc(-c2cc(-c3ccc4c(c3)CCNC4=O)c(N)nc2F)c(F)c1` [I-108, (R)-6-(2-amino-6-fluoro-5-(2-fluoro-4-(3-methylmorpholino)phenyl)pyridin-3-yl)-3,4-dihydroisoquinolin-1(2H)-one] are 11 to 100 nM and above 1000 nM.
Consider `Nc1nc(F)c(-c2ccc(N3CCOCC3)cc2)cc1-c1cc(F)c2c(=O)[nH]ccc2c1` [I-396, 6-(2-amino-6-fluoro-5-(4-morpholinophenyl)pyridin-3-yl)-8-fluoroisoquinolin-1(2H)-one], for which the IC50 in experiment [1] (read-out: HPK1 IC50 nM Range*) is 0.1 to 10 nM; at Lck (h) (read-out: Lck IC50 nM Range*), above 1000 nM.
As to `CN1CCN(c2ccc(-c3cc(-c4ccc5c(c4)CCNC5=O)c(N)nc3F)cc2)CC1` [I-8, 6-(2-amino-6-fluoro-5-(4-(4-methylpiperazin-1-yl)phenyl)pyridin-3-yl)-3,4-dihydroisoquinolin-1(2H)-one], the IC50 in experiment [1] (read-out: HPK1 IC50 nM Range*) is 0.1 to 10 nM; at Lck (h) (read-out: Lck IC50 nM Range*), above 1000 nM.
The corresponding values for `Nc1nc(F)c(-c2ccc([C@@]34C[C@@H]3CN(C3COC3)C4)cc2)cc1-c1ccc2c(c1)CCNC2=O` [I-156, 6-(2-amino-6-fluoro-5-(4-((1R,5S)-3-(oxetan-3-yl)-3-azabicyclo[3.1.0]hexan-1-yl)phenyl)pyridin-3-yl)-3,4-dihydroisoquinolin-1(2H)-one] are 0.1 to 10 nM and above 1000 nM.
The corresponding values for `Nc1nc(F)c(-c2ccc(OC3CCNCC3)c3c2OCO3)cc1-c1ccc2c(c1)CCNC2=O` [I-145, 6-(2-amino-6-fluoro-5-(7-(piperidin-4-yloxy)benzo[d][1,3]dioxol-4-yl)pyridin-3-yl)-3,4-dihydroisoquinolin-1(2H)-one] are 0.1 to 10 nM and above 1000 nM.
The corresponding values for `CN1CCN(Cc2ccc(-c3cc(-c4ccc5c(c4)CCNC5=O)c(N)nc3F)cc2)CC1` [I-258, 6-(2-amino-6-fluoro-5-(4-((4-methylpiperazin-1-yl)methyl)phenyl)pyridin-3-yl)-3,4-dihydroisoquinolin-1(2H)-one] are 11 to 100 nM and above 1000 nM.
In the case of `CN1C=NN(c2ccc(-c3cc(-c4ccc5c(c4)CCNC5=O)c(N)nc3F)cc2)CC1` [I-118, 6-(2-amino-6-fluoro-5-(4-(4-methyl-5,6-dihydro-1,2,4-triazin-1(4H)-yl)phenyl)pyridin-3-yl)-3,4-dihydroisoquinolin-1(2H)-one], the results for the IC50 (in experiment [1] (read-out: HPK1 IC50 nM Range*); on Lck (h) (read-out: Lck IC50 nM Range*)) were 0.1 to 10 nM and above 1000 nM, respectively.
For `Nc1nc(F)c(-c2ccc(C3=CCN(C4COC4)CC3)cc2)cc1-c1ccc2c(c1)CCNC2=O` [I-155, 6-(2-amino-6-fluoro-5-(4-(1-(oxetan-3-yl)-1,2,3,6-tetrahydropyridin-4-yl)phenyl)pyridin-3-yl)-3,4-dihydroisoquinolin-1(2H)-one], the IC50 is 0.1 to 10 nM in experiment [1] (read-out: HPK1 IC50 nM Range*) and above 1000 nM at Lck (h) (read-out: Lck IC50 nM Range*).
The corresponding values for `Nc1nc(F)c(-c2ccc(N3CCOCC3)cn2)cc1-c1ccc2c(c1)CCNC2=O` [I-26, 6-(6′-amino-2′-fluoro-5-morpholino-[2,3′-bipyridin]-5′-yl)-3,4-dihydroisoquinolin-1(2H)-one] are 0.1 to 10 nM and above 1000 nM.
In the case of `CC(C)N1CC(Oc2ccc(-c3cc(-c4ccc5c(c4)CCNC5=O)c(N)nc3F)cc2)C1` [I-288, 6-(2-amino-6-fluoro-5-(4-((1-isopropylazetidin-3-yl)oxy)phenyl)pyridin-3-yl)-3,4-dihydroisoquinolin-1(2H)-one], the figures for the IC50 (in experiment [1] (read-out: HPK1 IC50 nM Range*); at Lck (h) (read-out: Lck IC50 nM Range*)) were 0.1 to 10 nM and above 1000 nM, respectively.
The corresponding values for `CNCC1Cc2cc(-c3cc(-c4ccc(N5CCOCC5)cc4)c(F)nc3N)ccc2C(=O)N1` (stereo not shown) [I-285, 6-(2-amino-6-fluoro-5-(4-morpholinophenyl)pyridin-3-yl)-3-((methylamino)methyl)-3,4-dihydroisoquinolin-1(2H)-one] are 11 to 100 nM and above 1000 nM.
For `Nc1nc(F)c(-c2ccc3c(c2)COC2(CCNCC2)O3)cc1-c1ccc2c(c1)CCNC2=O` [I-181, 6-(2-amino-6-fluoro-5-(4H-spiro[benzo[d][1,3]dioxine-2,4′-piperidin]-6-yl)pyridin-3-yl)-3,4-dihydroisoquinolin-1(2H)-one], the IC50 was 0.1 to 10 nM in experiment [1] and above 1000 nM against Lck (h).
For `CC(C)[C@@H]1CN(c2ccc(-c3cc(-c4ccc5c(c4)CCNC5=O)c(N)nc3F)c(F)c2)CCO1` [I-11, (R)-6-(2-amino-6-fluoro-5-(2-fluoro-4-(2-isopropylmorpholino)phenyl)pyridin-3-yl)-3,4-dihydroisoquinolin-1(2H)-one], the IC50 in experiment [1] (read-out: HPK1 IC50 nM Range*) is 0.1 to 10 nM; on Lck (h) (read-out: Lck IC50 nM Range*), above 1000 nM.
The corresponding values for `Nc1nc(F)c(-c2ccc3c(c2)C(=O)CC2(CCN(CC(F)(F)F)CC2)O3)cc1-c1ccc2c(c1)CCNC2=O` [I-196, 6-(6-amino-2-fluoro-5-(1-oxo-1,2,3,4-tetrahydroisoquinolin-6-yl)pyridin-3-yl)-1′-(2,2,2-trifluoroethyl)spiro[chromane-2,4′-piperidin]-4-one] are 0.1 to 10 nM and above 1000 nM.
